Patent publication US20230038929A1, “Fused Tricyclic Heterocyclic Compounds and Uses Thereof” (Verge Analytics, Inc., priority 2019, published 2023)
pIC50: −log10 of the molar value. Counter-ions that a name gives are not always drawn. Like-named read-outs stand apart in the source and are kept apart here.

Tests used:
Format in all cases: biochemical
[1] = target: T1, Full length human recombinant PIKFYVE (Homo sapiens, UniProt Q9Y2I7, L932S/Q1183K/Q995L/S1033A/S696N/T998S); assay: Inhibition of PIKfyve (microfluidic electrophoresis kinase assay)
T1 construct: Full length human recombinant PIKFYVE; purchased Carna Biosciences (Kobe, Japan); host or cells: baculovirus expression system (insect cells)
Method: Biological Example 1: Inhibition of PIKfyve
Full length human recombinant PIKFYVE expressed in baculovirus expression system as N-terminal GST-fusion protein (265 kDa) was obtained from Carna Biosciences (Kobe, Japan). The kinase substrate was prepared by mixing and sonicating fluorescently-labeled phosphatidylinositol 3-phosphate (PI3P) with phospho-L-serine (PS) at a 1:10 ratio in 50 mM HEPES buffer pH7.5.
The kinase reactions were assembled in 384-well plates (Greiner) in a total volume of […] as follows. Kinase protein was pre-diluted in an assay buffer comprising 25 mM HEPES, pH 7.5, 1 mM DTT, 2.5 mM MgCl2, and 2.5 mM MnCl2, and 0.005% Triton X-100, and dispensed into a 384-well plate (10 μL per well). Test compounds were serially pre-diluted in DMSO and added to the protein samples by acoustic dispensing (Labcyte Echo). The concentration of DMSO was equalized to 1% in all samples. All test compounds were tested at 12 concentrations. Apilimod was used as a reference compound and was tested in identical manner in each assay plate. Control samples (0%-inhibition, in the absence of inhibitor, DMSO only) and 100%-inhibition (in the absence of enzyme) were assembled in replicates of four and were used to calculate %-inhibition in the presence of compounds. The reactions were initiated by addition of 10 μL of 2× PI3P/PS substrate supplemented with ATP. The final concentration of enzyme was 2 nM, the final concentration of ATP was […], and the final concentration of PI3P/PS substrate was 1 μM (PI3P). The kinase reactions were allowed to proceed for 3 h at room temperature. Following incubation, the reactions were quenched by addition of […] of termination buffer (100 mM HEPES, pH 7.5, 0.01% Triton X-100, 20 mM EDTA). Terminated plates were analyzed on a microfluidic electrophoresis instrument (Caliper LabChip® 3000, Caliper Life Sciences/Perkin Elmer). The change in the relative fluorescence intensity of the PI(3)P substrate and PI(3,5)P product peaks was measured. The activity in each test sample was determined as the product to sum ratio (PSR): P/(S+P), where P is the peak height of the product, and S is the peak height of the substrate. Percent inhibition (Pinh) was determined using the following equation:
Pinh=(PSR0%inh−PSRcompound)/(PSR0%inh−P100%inh)*100
in which PSRcompound is the product/sum ratio in the presence of compound, PSR0%inh is the product/sum ratio in the absence of compound, and the PSR100%inh is the product/sum ratio in the absence of the enzyme. To determine the ICso of test compounds (50%-inhibition) the %-inh cdata (Pinh versus compound concentration) were fitted by a four-parameter sigmoid dose-response model using XLfit software (IDBS).

[2] = target: T2, PI3Kβ (p110β/p85α) (Homo sapiens, UniProt P42338)
T2 construct: Full-length N-terminal GST-; GST (N); host or cells: SF9 cells (baculovirus)
T2 sequence (P42338 whole entry): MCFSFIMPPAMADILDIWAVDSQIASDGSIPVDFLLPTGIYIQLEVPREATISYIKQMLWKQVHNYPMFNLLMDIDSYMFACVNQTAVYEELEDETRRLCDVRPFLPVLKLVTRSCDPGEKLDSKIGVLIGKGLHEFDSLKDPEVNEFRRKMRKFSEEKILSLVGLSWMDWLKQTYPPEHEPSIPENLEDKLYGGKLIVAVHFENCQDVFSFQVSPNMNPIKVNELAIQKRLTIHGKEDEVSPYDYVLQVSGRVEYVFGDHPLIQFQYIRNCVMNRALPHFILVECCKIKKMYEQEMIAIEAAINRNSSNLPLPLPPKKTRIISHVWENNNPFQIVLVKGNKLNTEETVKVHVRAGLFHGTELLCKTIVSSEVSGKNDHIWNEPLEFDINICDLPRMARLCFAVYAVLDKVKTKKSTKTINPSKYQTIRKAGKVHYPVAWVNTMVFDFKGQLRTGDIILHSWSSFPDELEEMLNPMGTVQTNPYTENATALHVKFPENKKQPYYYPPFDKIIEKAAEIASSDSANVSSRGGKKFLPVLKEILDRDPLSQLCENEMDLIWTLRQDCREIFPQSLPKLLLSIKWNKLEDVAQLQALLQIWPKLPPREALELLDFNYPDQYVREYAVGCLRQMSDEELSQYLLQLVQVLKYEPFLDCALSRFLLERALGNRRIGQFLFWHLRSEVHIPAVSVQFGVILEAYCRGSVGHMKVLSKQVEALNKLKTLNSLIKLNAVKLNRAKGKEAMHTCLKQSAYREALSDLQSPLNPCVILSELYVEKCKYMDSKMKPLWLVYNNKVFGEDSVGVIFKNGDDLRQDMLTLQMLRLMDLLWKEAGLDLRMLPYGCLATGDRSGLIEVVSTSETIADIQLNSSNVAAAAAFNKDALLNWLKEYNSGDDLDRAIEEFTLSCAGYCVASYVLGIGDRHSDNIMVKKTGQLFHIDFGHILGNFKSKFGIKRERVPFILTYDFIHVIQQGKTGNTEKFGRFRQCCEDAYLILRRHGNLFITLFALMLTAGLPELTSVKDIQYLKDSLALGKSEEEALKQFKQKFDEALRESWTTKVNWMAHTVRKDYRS
T2 sequence (P27986 whole entry, further chain): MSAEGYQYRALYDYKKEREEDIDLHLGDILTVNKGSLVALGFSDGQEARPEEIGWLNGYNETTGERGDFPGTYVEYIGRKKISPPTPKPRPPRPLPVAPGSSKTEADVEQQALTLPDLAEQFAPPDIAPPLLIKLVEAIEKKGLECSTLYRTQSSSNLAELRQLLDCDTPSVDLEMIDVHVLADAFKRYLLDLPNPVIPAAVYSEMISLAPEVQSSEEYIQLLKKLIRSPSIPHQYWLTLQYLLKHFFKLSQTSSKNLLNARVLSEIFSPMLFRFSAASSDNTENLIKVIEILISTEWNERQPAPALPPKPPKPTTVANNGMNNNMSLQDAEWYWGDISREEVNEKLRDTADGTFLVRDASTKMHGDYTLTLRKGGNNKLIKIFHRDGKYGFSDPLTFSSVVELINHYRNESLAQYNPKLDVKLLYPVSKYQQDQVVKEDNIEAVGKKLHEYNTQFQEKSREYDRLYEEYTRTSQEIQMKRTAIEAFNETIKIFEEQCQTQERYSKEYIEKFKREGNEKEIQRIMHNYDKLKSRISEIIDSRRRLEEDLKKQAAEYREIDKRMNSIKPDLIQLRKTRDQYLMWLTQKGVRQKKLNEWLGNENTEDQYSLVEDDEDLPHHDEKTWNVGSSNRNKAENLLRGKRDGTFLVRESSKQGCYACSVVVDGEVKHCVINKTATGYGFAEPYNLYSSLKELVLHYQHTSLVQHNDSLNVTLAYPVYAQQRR

[3] = target: T3, PI3Kα (p110α/p85α) (Homo sapiens, UniProt P42336)
T3 construct: Full-length N-terminal; FLAG (N); host or cells: SF9 cells (baculovirus)
T3 sequence (P42336 whole entry): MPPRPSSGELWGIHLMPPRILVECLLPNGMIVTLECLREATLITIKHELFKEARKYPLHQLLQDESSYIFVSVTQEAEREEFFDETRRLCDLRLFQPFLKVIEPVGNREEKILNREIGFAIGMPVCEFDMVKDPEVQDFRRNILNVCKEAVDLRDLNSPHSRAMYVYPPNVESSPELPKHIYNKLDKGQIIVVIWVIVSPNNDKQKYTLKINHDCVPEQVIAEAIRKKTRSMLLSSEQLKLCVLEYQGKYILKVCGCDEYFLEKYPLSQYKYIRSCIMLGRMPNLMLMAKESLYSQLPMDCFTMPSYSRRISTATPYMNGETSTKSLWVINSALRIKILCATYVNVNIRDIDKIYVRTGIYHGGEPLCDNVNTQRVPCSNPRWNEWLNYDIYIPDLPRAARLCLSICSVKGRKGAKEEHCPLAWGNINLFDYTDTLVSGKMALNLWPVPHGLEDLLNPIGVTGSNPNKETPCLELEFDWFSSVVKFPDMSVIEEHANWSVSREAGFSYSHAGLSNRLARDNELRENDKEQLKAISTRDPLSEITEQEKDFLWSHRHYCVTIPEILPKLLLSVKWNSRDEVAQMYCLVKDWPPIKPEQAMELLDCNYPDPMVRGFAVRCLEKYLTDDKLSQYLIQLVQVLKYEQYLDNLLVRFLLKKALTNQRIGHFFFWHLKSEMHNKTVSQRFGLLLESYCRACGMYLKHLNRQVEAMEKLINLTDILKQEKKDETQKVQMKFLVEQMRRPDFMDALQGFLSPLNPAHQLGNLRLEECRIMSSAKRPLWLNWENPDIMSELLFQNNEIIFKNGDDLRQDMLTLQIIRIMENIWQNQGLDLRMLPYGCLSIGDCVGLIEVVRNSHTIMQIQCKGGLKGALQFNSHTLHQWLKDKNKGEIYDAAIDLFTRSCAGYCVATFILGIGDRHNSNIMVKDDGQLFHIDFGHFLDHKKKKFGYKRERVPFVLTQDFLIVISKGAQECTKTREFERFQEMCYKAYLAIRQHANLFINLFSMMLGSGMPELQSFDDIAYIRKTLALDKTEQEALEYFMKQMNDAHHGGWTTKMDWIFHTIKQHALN
T3 sequence (P27986 whole entry, further chain): as the sequence (P27986 whole entry, further chain) above

[4] = target: T4, PI3Kδ (p110δ/p85α) (Homo sapiens, UniProt O00329)
T4 construct: Full-length N-terminal GST-; GST (N); host or cells: SF9 cells (baculovirus)
T4 sequence (O00329 whole entry): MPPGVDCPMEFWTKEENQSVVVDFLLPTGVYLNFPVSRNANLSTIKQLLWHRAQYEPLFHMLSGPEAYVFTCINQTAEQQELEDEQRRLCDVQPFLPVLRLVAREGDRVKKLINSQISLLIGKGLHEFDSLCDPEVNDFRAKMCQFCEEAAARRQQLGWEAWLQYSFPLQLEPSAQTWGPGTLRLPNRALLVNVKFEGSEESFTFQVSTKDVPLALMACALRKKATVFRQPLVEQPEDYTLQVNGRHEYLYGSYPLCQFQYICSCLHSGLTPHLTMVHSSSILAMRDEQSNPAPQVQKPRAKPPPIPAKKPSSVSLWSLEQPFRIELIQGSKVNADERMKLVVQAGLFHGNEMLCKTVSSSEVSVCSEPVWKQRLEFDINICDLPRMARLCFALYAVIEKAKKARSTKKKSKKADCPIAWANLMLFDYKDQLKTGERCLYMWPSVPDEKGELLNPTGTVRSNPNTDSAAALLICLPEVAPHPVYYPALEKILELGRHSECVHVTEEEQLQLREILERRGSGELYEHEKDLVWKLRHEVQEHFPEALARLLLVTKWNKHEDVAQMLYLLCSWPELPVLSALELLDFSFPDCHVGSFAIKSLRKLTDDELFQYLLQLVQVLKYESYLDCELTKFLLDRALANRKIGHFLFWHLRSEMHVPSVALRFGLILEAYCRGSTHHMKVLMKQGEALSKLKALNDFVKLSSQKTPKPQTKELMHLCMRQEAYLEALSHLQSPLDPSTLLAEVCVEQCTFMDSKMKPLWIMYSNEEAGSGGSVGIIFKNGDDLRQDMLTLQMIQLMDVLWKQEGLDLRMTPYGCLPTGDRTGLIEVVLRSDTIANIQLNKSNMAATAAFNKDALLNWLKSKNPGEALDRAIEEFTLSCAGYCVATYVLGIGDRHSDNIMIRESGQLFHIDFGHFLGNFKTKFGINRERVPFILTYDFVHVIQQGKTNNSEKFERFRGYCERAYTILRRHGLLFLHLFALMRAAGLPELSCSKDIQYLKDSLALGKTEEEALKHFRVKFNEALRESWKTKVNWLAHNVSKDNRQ
T4 sequence (P27986 whole entry, further chain): as the sequence (P27986 whole entry, further chain) above

[5] = 2 nM enzyme, 1 μM PI3P, 3 h at room temperature, 12 concentrations, read-out: PIKfyve IC50
[6] = 1 nM enzyme, ATP 60 μM, 1 μM PIP2, 3 h room temperature, read-out: PI3Kβ IC50
[7] = 0.5 nM enzyme, ATP 90 μM, 1 μM PIP2, 3 h room temperature, read-out: PI3Kα IC50
[8] = 0.25 nM enzyme, ATP 90 μM, 1 μM PIP2, 3 h room temperature, read-out: PI3Kδ IC50

Row | pIC50 [1, 5] | SMILES | other results
1 | 6.40 | Cc1ccc(-c2cc(Nc3nc(N4CCOCC4)c4oc5ncccc5c4n3)[nH]n2)cc1 [Example 50, 4-morpholino-N-(3-(p-tolyl)-1H-pyrazol-5-yl)pyrido[3′,2′:4,5]furo[3,2-d]pyrimidin-2-amine] | –
2 | 7.70 | CN(C)CCCOc1ccc2c(n1)oc1c(N3CCOCC3)nc(Nc3cc(-c4ccccc4)n[nH]3)nc12 [Example 23, 7-(3-(dimethylamino)propoxy)-4-morpholino-N-(3-phenyl-1H-pyrazol-5-yl)pyrido[3′,2′:4,5]furo[3,2-d]pyrimidin-2-amine hydrochloride] | –
3 | 7.34 | CN1CCN(CCOc2ccc3c(n2)oc2c(N4CCOCC4)nc(Nc4cc(-c5ccccc5)n[nH]4)nc23)CC1 [Example 28, 7-(2-(4-methylpiperazin-1-yl)ethoxy)-4-morpholino-N-(3-phenyl-1H-pyrazol-5-yl)pyrido[3′,2′:4,5]furo[3,2-d]pyrimidin-2-amine hydrochloride] | –
4 | 8.52 | CN1CCN(CCCOc2ccc3c(n2)oc2c(N4CCOCC4)nc(Nc4cc(-c5ccccc5)n[nH]4)nc23)CC1 [Example 29, 7-(3-(4-methylpiperazin-1-yl)propoxy)-4-morpholino-N-(3-phenyl-1H-pyrazol-5-yl)pyrido[3′,2′:4,5]furo[3,2-d]pyrimidin-2-amine hydrochloride] | –
5 | 5.81 | FC(F)(F)Oc1cccc(-c2cc(Nc3nc(N4CCOCC4)c4oc5ncccc5c4n3)[nH]n2)c1 [Example 35, 4-morpholino-N-(3-(3-(trifluoromethoxy)phenyl)-1H-pyrazol-5-yl)pyrido[3′,2′:4,5]furo[3,2-d]pyrimidin-2-amine hydrochloride] | –
6 | 6.79 | COc1ccc2c(n1)oc1c(N3CCOCC3)nc(Nc3cc(-c4ccccc4)n[nH]3)nc12 [Example 30, 7-methoxy-4-morpholino-N-(3-phenyl-1H-pyrazol-5-yl)pyrido[3′,2′:4,5]furo[3,2-d]pyrimidin-2-amine hydrochloride] | –
7 | 6.58 | Cc1cccc(-c2cc(Nc3nc(N4CCOCC4)c4oc5ncccc5c4n3)[nH]n2)n1 [Example 33, N-(3-(6-methylpyridin-2-yl)-1H-pyrazol-5-yl)-4-morpholinopyrido[3′,2′:4,5]furo[3,2-d]pyrimidin-2-amine hydrochloride] | –
8 | 6.84 | CN(C)CCc1cnc2oc3c(N4CCOCC4)nc(Nc4cc(-c5ccccc5)n[nH]4)nc3c2c1 [Example 13, 8-(2-(Dimethylamino)ethyl)-4-morpholino-N-(3-phenyl-1H-pyrazol-5-yl)pyrido[3′,2′:4,5]furo[3,2-d]pyrimidin-2-amine] | –
9 | 7.21 | c1ccc(-c2cc(Nc3nc(N4CCOCC4)c4oc5nc(OCCN6CCOCC6)ccc5c4n3)[nH]n2)cc1 [Example 24, 4-morpholino-7-(2-morpholinoethoxy)-N-(3-phenyl-1H-pyrazol-5-yl)pyrido[3′,2′:4,5]furo[3,2-d]pyrimidin-2-amine hydrochloride] | –
10 | 7.09 | c1ccc(-c2cc(Nc3nc(N4CCOCC4)c4oc5nc(OCCN6CCCC6)ccc5c4n3)[nH]n2)cc1 [Example 26, 4-morpholino-N-(3-phenyl-1H-pyrazol-5-yl)-7-(2-(pyrrolidin-1-yl)ethoxy)pyrido[3′,2′:4,5]furo[3,2-d]pyrimidin-2-amine hydrochloride] | –
11 | 5.32 | c1ccc(-c2c[nH]c(Nc3nc(N4CCOCC4)c4oc5ncccc5c4n3)n2)cc1 [Example 20, 4-morpholino-N-(4-phenyl-1H-imidazol-2-yl)pyrido[3′,2′:4,5]furo[3,2-d]pyrimidin-2-amine hydrochloride] | –

The next lines start with the compound.

Row | SMILES | pIC50 [1, 5] | other results
12 | c1cnc2oc3c(N4CCOCC4)nc(Nc4cc(C5CCC5)n[nH]4)nc3c2c1 [Example 55, N-(3-cyclobutyl-1H-pyrazol-5-yl)-4-morpholinopyrido[3′,2′:4,5]furo[3,2-d]pyrimidin-2-amine hydrochloride] | 5.89 | pIC50 [2, 6]: 6.50; pIC50 [3, 7]: 7.80; pIC50 [4, 8]: 8.15
13 | c1cnc2oc3c(N4CCOCC4)nc(Nc4ccncc4)nc3c2c1 [Example 38, 4-morpholino-N-(pyridin-4-yl)pyrido[3′,2′:4,5]furo[3,2-d]pyrimidin-2-amine] | < 5.00 | pIC50 [2, 6]: 5.24; pIC50 [3, 7]: 5.06; pIC50 [4, 8]: 5.83
14 | Cn1ccnc1Nc1nc(N2CCOCC2)c2oc3ncccc3c2n1 [Example 12, N-(1-Methyl-1H-imidazol-2-yl)-4-morpholinopyrido[3′,2′:4,5]furo[3,2-d]pyrimidin-2-amine] | < 5.00 | pIC50 [2, 6]: 5.18; pIC50 [3, 7]: 5.79; pIC50 [4, 8]: 5.72
15 | c1ccc(CCNc2nc(N3CCOCC3)c3oc4ncccc4c3n2)cc1 [Example 21, 4-morpholino-N-phenethylpyrido[3′,2′:4,5]furo[3,2-d]pyrimidin-2-amine] | 6.01 | pIC50 [2, 6]: 6.61; pIC50 [3, 7]: 6.80; pIC50 [4, 8]: 7.43
16 | O=C(Nc1nc(N2CCOCC2)c2oc3ncccc3c2n1)Oc1ccccc1 [Example 22, phenyl(4-morpholinopyrido[3′,2′:4,5]furo[3,2-d]pyrimidin-2-yl)carbamate hydrochloride] | – | pIC50 [1]: 5.19; pIC50 [2]: 5.57; pIC50 [3]: 6.10; pIC50 [4]: 6.33
17 | Cc1cc(Nc2nc(N3CCOCC3)c3oc4ncccc4c3n2)[nH]n1 [Example 8, N-(3-Methyl-1H-pyrazol-5-yl)-4-morpholinopyrido[3′,2′:4,5]furo[3,2-d]pyrimidin-2-amine] | 5.66 | pIC50 [2, 6]: 6.51; pIC50 [3, 7]: 6.79; pIC50 [4, 8]: 7.62
18 | C[C@H](Nc1nc(N2CCOCC2)c2oc3ncccc3c2n1)C1CC1 [Example 36, (S)-N-(1-cyclopropylethyl)-4-morpholinopyrido[3′,2′:4,5]furo[3,2-d]pyrimidin-2-amine] | < 5.00 | pIC50 [2, 6]: 6.13; pIC50 [3, 7]: 7.11; pIC50 [4, 8]: 7.11
19 | c1cnc2oc3c(N4CCOCC4)nc(Nc4cc(CC5CC5)n[nH]4)nc3c2c1 [Example 54, N-(3-(cyclopropylmethyl)-1H-pyrazol-5-yl)-4-morpholinopyrido[3′,2′:4,5]furo[3,2-d]pyrimidin-2-amine hydrochloride] | 5.59 | –
20 | c1ccc(-c2ccc(Nc3nc(N4CCOCC4)c4oc5ncccc5c4n3)cc2)cc1 [Example 44, N-([1,1′-biphenyl]-4-yl)-4-morpholinopyrido[3′,2′:4,5]furo[3,2-d]pyrimidin-2-amine] | 6.45 | –
21 | O=C(Nc1nc(N2CCOCC2)c2oc3ncccc3c2n1)c1ccccc1 [Example 3] | < 5.00 | –
22 | CC(C)c1cc(Nc2nc(N3CCOCC3)c3oc4ncccc4c3n2)[nH]n1 [Example 63, N-(3-isopropyl-1H-pyrazol-5-yl)-4-morpholinopyrido[3′,2′:4,5]furo[3,2-d]pyrimidin-2-amine hydrochloride] | 5.73 | –
23 | c1cnc2oc3c(N4CCOCC4)nc(Nc4cc(C5CCCC5)n[nH]4)nc3c2c1 [Example 59, N-(3-cyclopentyl-1H-pyrazol-5-yl)-4-morpholinopyrido[3′,2′:4,5]furo[3,2-d]pyrimidin-2-amine hydrochloride] | 5.89 | –
24 | c1ccc(-c2cccc(Nc3nc(N4CCOCC4)c4oc5ncccc5c4n3)c2)cc1 [Example 45, N-([1,1′-biphenyl]-3-yl)-4-morpholinopyrido[3′,2′:4,5]furo[3,2-d]pyrimidin-2-amine] | 5.40 | –
25 | Fc1ccc(-c2cc(Nc3nc(N4CCOCC4)c4oc5ncccc5c4n3)[nH]n2)cc1F [Example 19, N-(3-(3,4-difluorophenyl)-1H-pyrazol-5-yl)-4-morpholinopyrido[3′,2′:4,5]furo[3,2-d]pyrimidin-2-amine hydrochloride] | 5.66 | –
